Data reported in patent US7736881B2, “Antibacterial and herbicidal compounds and system for screening the same” (University of Utah Research Foundation, priority 2000, dated 2010).
“Also recorded” adds a separate entry of the source.

Experiments:
[1] = system: Strain JC7623 dxs::pCAT53-3 transformed with pLME10 (R. capsulatus dxsB in pET11-A); assay: Screen for antimicrobial agent using strain JC7623 dxs::pCAT53-3 transformed with pLME10 (plate growth); format: cell-based, E. coli
[2] = system: Strain RMC25 electroporated with pLME10 (R. capsulatus dxsB in pET11-A); assay: Screen for antimicrobial agent using strain RMC25 electroporated with pLME10 (plate growth); format: cell-based, S. typhimurium
[3] = LB/kan/ME/fosmidomycin, fosmidomycin ~4 μg/mL, ME 50 mg/L, after 1 day
[4] = after 2.5 days, fosmidomycin ~4 μg/mL, ME 50 mg/L

O=CN(O)CCCP(=O)(O)O [fosmidomycin]
growth on Plate F [1]: microcolonies
growth on plate F compared with plate C (LB/kan/MVA/arabinose without fosmidomycin) [1]: equal
growth on Plate E ([1]; LB/ka/IPTG/fosmidomycin, fosmidomycin ~4 μg/mL, IPTG 1 mM, after 2.5 days): no growth
growth on Plate G [1, 3]: colonies
growth on plate G compared with plate D (LB/kan/ME without fosmidomycin) [1, 4]: equal
growth on Plate F [2]: colonies
growth on plate F compared with plate C (LB/kan/MVA/arabinose without fosmidomycin) [2]: equal
growth on Plate E ([2]; LB/kan/IPTG/fosmidomycin, fosmidomycin ~4 μg/mL, IPTG 1 mM, after 2.5 days): no growth; also recorded: growth is inhibited
growth on Plate G [2, 3]: colonies
growth on plate G compared with plate D (LB/kan/ME without fosmidomycin) [2, 4]: equal
